From patent US20100184807A1, “Methods to inhibit tumor cell growth by using proton pump inhibitors” (Bio-Quant, Inc., priority 2008, published 2010)

Tested on: GDM-1 (leukemia)
Experiment: MTT tumor cell growth assay
Type: cell-based
Conditions: GDM-1 (FIG. 3J); 10 μM
Protocol: In one study, adherent cells were plated approximately 16-24 hours before the day of the experiment in 180 μl growth media. On the day of the experiment, the plated adherent cells were analyzed and counted and suspension cells were plated in 180 μl growth media. 10× lansoprazole compounds and vehicle was prepared. The 10× lansoprazole compounds were prepared by diluting lansoprazole to final concentrations of 100 μM, 30 μM, 10 μM, 3 μM, and 1 μM. A vehicle was prepared by preparing a solution of PBS, equivalent to the volume used for 10 μM lansoprazole wherein the 1× solution constitutes ˜0.06% PBS. 10 μl of the various 10× lansoprazole solutions and the vehicle were added to the cells. The cells were incubated at 37° C., 5% CO2 for 48 hours. The media was then aspirated. The cell suspension was then spun at 1500 RPM for 10 minutes. The media was slowly removed. 200 μl of MTT solution was added to each well with a concentration of 0.863 mg/ml MTT in the growth media. The cells were incubated at 37° C., 5% CO2 for 4 hours and the medium is then aspirated. The plate containing the cell suspension was then spun at 1500 RPM for 10 minutes. The media was slowly removed using a multichannel pipettor. 100 μl of DMSO was then added to each well. The cells were incubated at 37° C., 5% CO2 for 5 minutes and the absorbance was obtained at 560 nm using a Dynex Opsys MR plate reader. The cells used for this procedure were the following cell lines: IGROV1 (ovarian cancer); OVCAR 8 (ovarian cancer); ES-2 (ovarian cancer); CAOV3 (ovarian cancer); OVCAR5 (ovarian cancer); SUDHL4 (lymphoma); RPMI8226 (myeloma); RPMI6666 (Hodgkin's lymphoma); NC37 (lymphoma); GDM-1 (leukemia); MC/CAR (prostate cancer); DU-145 (prostate cancer), J45-01 (leukemia), MOLT3 (leukemia), HUT78, J-gamma-1 (leukemia), MCF7 […], COL0205 (colon cancer), HL60 CLONE 15 (leukemia), T47D (breast cancer), P116 (intestinal cancer), KU812 (leukemia), SW620 (colon cancer), MK92-M1 (lymphoma), MV-4-11 (leukemia), HS578T (breast cancer), HT29 (colon cancer), HCT 116 (colon cancer), CAKI-1 (kidney cancer), A549 (lung cancer), H460 (lung cancer), A3 (colon cancer), MDA-MB231 […], MALME 3M (melanoma), RXF393 (kidney cancer), RS4.11 (leukemia), PC3 (prostate cancer), OVCAR3 (ovarian cancer), MDA-MB435 (melanoma), HUT102 (lymphoma), HL60 (leukemia), CCRF-CEM (leukemia), HUT78 (lymphoma), 786-O (kidney cancer), ACHN (kidney cancer), A498 (kidney cancer), H226 (lung cancer), H522 (lung cancer), HOP92 (lung cancer), SNB 19 (brain cancer), OVCAR4 (ovarian cancer), H9 (lymphoma), UO-31 (kidney cancer), HH (lymphoma), DAUDI (leukemia), LOXIMVI (melanoma), NAMALWA (lymphoma), EKVX (lung cancer), DOHH2 (lymphoma), SNB75 (brain cancer), SKMEL28 (melanoma), SKMEL5 (melanoma), SKMEL2 (melanoma), M14 (melanoma), UACC 257 (melanoma), H332M (lung cancer), KM12 (colon cancer), HCC2998 (colon cancer), G401 (kidney cancer), RS1184 (lymphoma), MC116 (leukemia), MOLT4 (leukemia), JM1 (liver cancer), HOP-62 (lung cancer), HCT-15 (colon cancer), SF-539 (brain cancer), SF295 (brain cancer), ST486 (lymphoma), U251 (brain cancer), and UACC-62 (melanoma).
Experiments, as described in Example I were conducted with lansoprazole, omeprazole and SCH 28080 at concentrations of 1 μM, 10 μM, and 100 μM. FIGS. 3A-3K show the experimental results when tumor cells from the following cell lines were treated with lansoprazole, omeprazole, and SCH 28080: IGROV1 (FIG. 3A), OVCAR8 (FIG. 3B), ES-2 (FIG. 3C), CAOV3 (FIG. 3D), OVCAR5 (FIG. 3E), SUDHL4 (FIG. 3F), RPMI8226 (FIG. 3G), RPMI6666 (FIG. 3H), NC37 (FIG. 3I), GDM-1 (FIG. 3J), and MC/CAR (FIG. 3K).

## Cc1nc2c(OCc3ccccc3)cccn2c1CC#N [SCH28080, SCH 28080]
  reducing tumor cell growth: effective in reducing tumor cell growth
